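Values below derive from 48-hour exposures of cells grown in 96-well plates, with endpoints linearly interpolated between the two concentrations bracketing the appropriate inhibition level. At the GI50, growth is halved. TGI: total growth inhibition.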
Tests used:
Assay in all cases: growth of human tumour cells (NCI), 48 h
[1] = test system: 786-0 renal
[2] = test system: HOP-92 NSCLC
[3] = test system: LOX IMVI melanoma
[4] = test system: MDA-MB-231 breast
[5] = test system: SK-MEL-5 melanoma
[6] = test system: SN12C renal
[7] = test system: SNB-19 CNS
[8] = test system: T-47D breast
[9] = test system: UO-31 renal
[10] = test system: MALME-3M melanoma

| Structure (SMILES) | TGI [1] | TGI [2] | TGI [3] | TGI [4] | TGI [5] | TGI [6] | TGI [7] | TGI [8] | TGI [9] | TGI [10] | GI50 [1] | GI50 [2] | GI50 [3] | GI50 [10] | GI50 [5] | GI50 [6] | GI50 [7] | GI50 [9] | GI50 [4] |
| --- | --- | --- | --- | --- | --- | --- | --- | --- | --- | --- | --- | --- | --- | --- | --- | --- | --- | --- | --- |
| C/C=C/C=C\C1OC(O)([C@H](CC)C(=O)NC/C=C/C=C(\C)[C@H](OC)C(C)C2OC(\C=C/C=C/C=C(\C)C(=O)c3c(O)ccn(C)c3=O)[C@H](O)[C@@H]2O)C(O)C(O)C1(C)C (some centres undefined) | > 100 µM | > 100 µM | > 100 µM | > 100 µM | > 100 µM | > 100 µM | > 100 µM | > 100 µM | > 100 µM |  |  |  |  |  |  |  |  |  |  |
| COC(=O)C(CC(=O)Nc1ccc(Cl)c(Cl)c1)C(=O)C(=O)NC1C2CC3CC(C2)CC1C3 (centres undefined) | > 100 µM | > 100 µM | > 100 µM |  | > 100 µM | > 100 µM | > 100 µM |  | > 100 µM | > 100 µM |  |  |  |  |  |  |  |  |  |
| Cn1c(=O)c(C(=O)NC(=O)OCc2ccccc2)cn(CCSCCOC(=O)NCCCCCCNC(=O)OCCSCCn2cc(C(=O)NC(=O)OCc3ccccc3)c(=O)n(C)c2=O)c1=O | > 100 µM | 87.5 µM | > 100 µM |  | > 100 µM | > 100 µM | > 100 µM |  | > 100 µM | > 100 µM |  |  |  |  |  |  |  |  |  |
| CC(C)CCc1c(Cl)nc(Cl)nc1Cl | 46.3 µM |  | 11.8 µM |  | 16.4 µM | 57.9 µM | 39 µM |  | 35.3 µM | 50.7 µM |  |  |  |  |  |  |  |  |  |
| Cc1ccc(N2C(=O)/C(=C/c3ccc(N(CCC#N)CCC#N)cc3C)N=C2c2cc([N+](=O)[O-])ccc2Cl)cc1 | > 100 µM | > 100 µM |  |  | > 100 µM | > 100 µM | > 100 µM |  | > 100 µM | > 100 µM |  |  |  |  |  |  |  |  |  |
| C[CH2][Sn]([CH2]C)([O]C(=O)c1cccc(F)c1)[O][Sn]([CH2]C)([CH2]C)[O]C(=O)c1cccc(F)c1 | 29.3 µM | 30.1 µM | 29.6 µM |  | > 100 µM | 31.3 µM | 39.5 µM |  | > 100 µM | 27.3 µM | 15.8 µM | 16.5 µM | 15.9 µM | 14.1 µM | 31.7 µM | 17 µM | 20.2 µM | 49.8 µM |  |
| Cc1ccc(/C=C2\CCCC\C2=N\O)cc1 | > 100 µM |  | > 100 µM |  | > 100 µM | > 100 µM | > 100 µM |  | 84 µM |  |  |  |  |  |  |  |  |  |  |
| CC12CC3CC(C1)CC(N=[N+]=[N-])(C3)C2 | > 100 µM | > 100 µM | > 100 µM |  | > 100 µM | > 100 µM | > 100 µM |  | > 100 µM | > 100 µM |  |  |  |  |  |  |  |  |  |
| COC(=O)c1cc2oc(/C=C3\SC(=S)N(NC(C)=O)C3=O)cc2n1Cc1ccccc1 | 18.6 µM | 2.59 µM | 1.6 µM | 17.4 µM | 10.7 µM | 20.8 µM | 21.2 µM |  | > 50 µM |  | 8.2 µM | 0.196 µM | 0.769 µM |  | 2.08 µM | 11.3 µM | 6.8 µM | 8.88 µM | 9.02 µM |
| O=C(/C=C1/NC(=O)CS1)Nc1ccccc1 | > 100 µM | > 100 µM |  |  | > 100 µM | > 100 µM | > 100 µM |  | > 100 µM | > 100 µM |  |  |  |  |  |  |  |  |  |
| O=C1C[C@@H]2CCCC[C@@H]2C12SCCS2 | > 100 µM |  | > 100 µM |  | > 100 µM | > 100 µM | > 100 µM |  | > 100 µM | > 100 µM |  |  |  |  |  |  |  |  |  |
